Experimental data taken from patent publication US5776769A, “Cell-type specific methods and devices for the low temperature preservation of the cells of an animal species” (Methodist Hospital of Indiana, priority 1995, dated 1998).

Experiments:
human spermatozoa = conditions: cited from earlier work
human sperm [1] = experiment: Sperm membrane integrity (dual staining, flow cytometry) after glycerol addition and removal; assay type: cell-based; conditions: in 1M glycerol or after addition and removal of 1M glycerol by the different procedures
Source text: One preferred procedure to assess cell viability utilizes dual flourescent staining and flow cytometric analysis as disclosed by Garner in Assessment of Spermatozoal Function Using Dual Fluorescent Staining and Flow Cytometric Analysis, Biol. Reprod. 34, 127-138, 1986, which is hereby incorporated into this specification by reference. Propidium iodide (PI) is a bright red, nucleic acid-specific fluorophore available from the Sigma Chemical Co. PI permeates poorly into sperm cells with intact plasma membranes, however, it readily diffuses into sperm having damaged membranes and stains the DNA red. […]
Plasma membrane integrity was analyzed by placing five μl of CFDA (suspended in 0.25 mg/ml of DMSO) and 5 μl of PI (suspended in 1 mg/ml H2 O) solutions into 0.5 ml of a particular sperm suspension. […] A total of 1×10^5 spermatozoa per treatment were analyzed using a FACSTAR PLUS™ flow cytometer.
TL-HEPES medium with 2M glycerol was either one-step or stepwise added to an equal volume of the isotonic sperm suspension to achieve a final 1M glycerol concentration at 22° C. […] Sperm motility before, during, and after the different glycerol addition and removal procedures was measured by CASA. The membrane integrity of the sperm was determined by the dual staining technique and flow cytometry.

human sperm cells = experiment: Glycerol removal with porous-membrane diffusion device; assay type: cell-based
Source text: A cell suspension with cryoprotectants is placed in the chamber (region 2) with an internal space/thickness of L. Two walls of the chamber are the porous membranes (regions 1 and 3) with special characteristics (e.g. membrane thickness: 150 μm, pore size: 0.22 to 0.65 μm in diameter, pore area: 70% of the total membrane surface area). For removing CPAs, isotonic cell culture medium without CPAs are continuously pumped and run through compartments (4 and 5) to quickly remove CPAs diffusing from the chamber (region 2) through the porous membrane. Meanwhile, the isotonic medium diffuses into the chamber to dilute the CPA concentration in the cell suspension. Because the porous membrane used is a nonselective membrane (pore size […]), CPAs and other solutes and solvents (water) diffuse freely across the […] with a constant cell suspension volume in the chamber. The pore size of the porous membrane, the thickness of the cell chamber, the diffusibility of CPA in the solution, the permeability coefficients of the cell membrane to water and CPA are control factors used in the design of the system. Basic assumptions and mathematical formulation describing the CPA diffusion across the porous membrane and the change of CPA concentration distribution in the chamber (i.e., the extracellular environment) are as follows:
A corresponding computer program using a finite difference method to calculate the above equations is used to simulate the mass transfer process in the system. The values of f, L2, Cf, Ci, L1, D1, D2 and hD can be used as control factors or adjustable parameters in the computer simulation. […] Calculated kinetic changes of glycerol concentration (initial 1M) at the chamber position A (center, see FIG. 19) and B (internal surface of porous membrane, see FIG. 19) are shown in FIG. 21, and the corresponding cell volume changes are calculated and predicted to be below the cell tolerance limit (1.1 times isotonic sperm volume), as shown in FIG. 22.

human sperm [2] = experiment: Sperm motility (CASA) after glycerol addition and removal procedures; assay type: cell-based; conditions: for sperm motility loss: final 1M glycerol, 22° C.
Procedure: Sperm motility was measured by computer assisted semen analysis (CASA) using CELLSOFT™, version 3.2/C. CASA was performed before, during, and after the anisosmotic exposures of the sperm samples. All experiments were conducted at 22° C.
TL-HEPES medium with 2M glycerol was either one-step or stepwise added to an equal volume of the isotonic sperm suspension to achieve a final 1M glycerol concentration at 22° C. Glycerol in the sperm was removed by dilution either by a one-step or stepwise addition of the TL-HEPES medium with or without an osmotic buffer (sucrose) placed into the cell suspension. The detailed procedures for the glycerol addition and removal are described in Tables 2-5. Sperm motility before, during, and after the different glycerol addition and removal procedures was measured by CASA. The membrane integrity of the sperm was determined by the dual staining technique and flow cytometry.
The time interval between two steps was approximately 1-2 minutes. The volume of solution added in each step was calculated using Equations 5 or 6.
The final 90 μl of sperm suspension were further diluted by adding 180 μl of TALP solution for the CASA analysis. The time interval between two steps is approximately 1-2 minutes. The volume of diluent added in each step was calculated using Equations 7 or 8.
Add 2000 μl of isotonic solution directly to 100 μl of cell suspension with 1M glycerol.
(1) Add 2000 μl of sucrose buffer medium

| Compound | Water permeability coefficient (Lp) (human spermatozoa; not told) [um/minutes/atm] | membrane integrity of the human sperm (human sperm [1]) | time for removal of over 95% of 1M glycerol (human sperm cells) [min] | cell clumping, loss in motility or membrane integrity, or curling of sperm tails (human sperm cells; 1M glycerol removal within 10 minutes) | glycerol removed from the human sperm cells (human sperm cells; 1M glycerol, within 10 minutes) | Glycerol permeability coefficient (PCPA) (human spermatozoa; 22° C., human spermatozoa) [×10⁻⁶ cm/s] | sperm that maintained motility (human sperm [2]; eight-step FMS removal of 1M glycerol) | sperm that lost motility (human sperm [2]; eight-step FVS removal of 1M glycerol) | sperm motility loss (human sperm [2]; four-step FMS addition) | sperm motility loss (human sperm [2]; one step addition) | motile sperm that kept motility (human sperm [2]; one-step removal of 1M glycerol) | motility loss (human sperm [2]; two-step removal of 1M glycerol using sucrose as non-permeating buffer (600 mOsm)) [%] |
| --- | --- | --- | --- | --- | --- | --- | --- | --- | --- | --- | --- | --- |
| O [Water, water] | 2.16 | – | – | – | – | – | – | – | – | – | – | – |
| OCC(O)CO [glycerol] | – | appeared to maintain membrane integrity under all experimental conditions | ≤ 10 | without significant cell clumping, loss in motility or membrane integrity, or curling of sperm tails | over 95% | 18.3 | over 92% | Thirty-five percent | less than 8% | approximately 20% | Less than 30% | ~45 |
